Source: US12590953B2, “Methods for screening cereblon modifying compounds” (CELGENE CORPORATION, priority 2018, dated 2026)
“Also recorded” adds a separate entry of the source. Read-outs that look alike come from different tables or passages of the source.

Assays:
SALL4 [1] = molecular target: T1, SALL4 (Mus musculus, UniProt Q8BX22); assay: SALL4 immunohistochemistry in wild-type mouse testis; type: in vivo; settings: wild type mice, 1000 mg/kg
T1 construct: tissue Taconic; host or cells: wild-type mouse testis (C57Bl/6Ntac)
Method: (§1) The SALL4 and ZFP91 protein levels were examined by immunohistochemistry in rabbit, wild-type mouse, and humanized cereblon mouse testes. […] HuCRBN Mice were treated for 7 days and testis were collected and examined by immunohistochemistry (n=3 animals per treatment group per species).
(§2) Rabbit embryos were stained for SALL4, and mouse testis were stained for SALL4 and ZFP91. Immunohistochemistry (IHC) was performed on the Bond-III automated slide stainer (Leica Microsystems, Buffalo Grove, Ill.) using the Bond Polymer Refine Detection system (Leica Microsystems, DS9800). Formalin fixed paraffin embedded (FFPE) tissues were sectioned at four micron thick and deparaffinized on the Bond-Max instrument. Antigen retrieval was performed with Epitope Retrieval 2 (ER2, pH 9.0) for 20 min at 100° C. The slides were blocked for endogenous peroxidase activity with Peroxide Block for 5 minutes at room temperature. Sections were then incubated with the mouse monoclonal anti-SALL4 EE-30 antibody (Santa Cruz, sc-101147) at a 1:100 dilution for 60 min at room temperature, or with the rabbit monoclonal anti-ZFP91 antibody (Celgene custom clone 122-8-6) at 0.25 ug/ml. For mouse testis, primary antibodies were incubated for 15 min at room temperature, and Post-Primary and horseradish peroxidase (HRP) labeled Polymer were incubated at the instrument's default conditions. […]

SALL4 [2] = assay: SALL4 immunohistochemistry in rabbit embryos; type: in vivo; settings: pregnant rabbits, 180 mg/kg per day from GD7, embryos GD8-12; 180 mg/kg/day
Method: (§3) All animals were housed and fed according to IACUC approved procedures. The rabbits either remained untreated (n=4 per time point) or received 180 mg/kg of Thalidomide per day (n=5 per time point) starting on GD7. Dose levels and sensitive gestation windows were selected based on previously reported finding in Thalidomide teratogenicity studies (Christian MS, birth defect research, 2007)
(§4) Cesarean sections were performed in each rabbit 3 hours after the last Thalidomide dose to ensure maximum plasma concentration of Thalidomide (CMax=3 hours) (Hui et al, Reproductive Toxicology, 2014). The uteri were removed, the implantation sites were counted and mortality and resorptions noted during embryo dissection. GD8 embryos were not dissected and were fixed in situ attached to the placental site and uterine wall. The entire implantation site was processed, embedded in paraffin and sectioned at 4 microns for immunohistochemistry. GD 9-12 embryos were collected with fetal membranes, fixed in 10% Neutral Buffered Formalin for 24 hours and transferred to 70% Ethanol. After fixation fetal membranes were removed and embryos processed, embedded in paraffin and sectioned at 4 microns for immunohistochemistry and in situ hybridization procedures.
Rabbit embryos were stained for SALL4, and mouse testis were stained for SALL4 and ZFP91. […]

ZFP91 [3] = molecular target: T2, ZFP91 (Mus musculus, UniProt Q62511); assay: ZFP91 immunohistochemistry in huCRBN mouse testis; type: in vivo; design: from tissue; host or cells: testis of homozygous huCRBN knock-in mice; settings: huCRBN mice, 1000 mg/kg for 7 days
Method: as §1, §2
Target sequence in this assay (Q62511 whole entry): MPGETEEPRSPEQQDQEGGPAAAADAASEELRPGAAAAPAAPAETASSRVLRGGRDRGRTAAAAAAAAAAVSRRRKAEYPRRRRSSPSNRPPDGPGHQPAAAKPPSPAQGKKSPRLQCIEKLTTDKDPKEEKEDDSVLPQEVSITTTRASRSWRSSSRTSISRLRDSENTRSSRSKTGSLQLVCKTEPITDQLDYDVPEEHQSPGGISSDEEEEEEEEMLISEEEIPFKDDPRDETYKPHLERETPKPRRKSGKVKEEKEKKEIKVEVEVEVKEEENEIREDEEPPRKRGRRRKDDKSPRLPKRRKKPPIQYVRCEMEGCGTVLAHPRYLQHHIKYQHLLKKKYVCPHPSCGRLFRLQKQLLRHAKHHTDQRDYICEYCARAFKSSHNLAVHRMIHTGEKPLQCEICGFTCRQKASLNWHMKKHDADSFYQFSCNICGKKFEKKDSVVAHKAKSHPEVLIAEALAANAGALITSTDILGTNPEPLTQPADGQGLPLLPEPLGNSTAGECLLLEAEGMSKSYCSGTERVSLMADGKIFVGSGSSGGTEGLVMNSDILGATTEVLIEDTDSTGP
Target sequence in this assay (Q96SW2 whole entry, further chain): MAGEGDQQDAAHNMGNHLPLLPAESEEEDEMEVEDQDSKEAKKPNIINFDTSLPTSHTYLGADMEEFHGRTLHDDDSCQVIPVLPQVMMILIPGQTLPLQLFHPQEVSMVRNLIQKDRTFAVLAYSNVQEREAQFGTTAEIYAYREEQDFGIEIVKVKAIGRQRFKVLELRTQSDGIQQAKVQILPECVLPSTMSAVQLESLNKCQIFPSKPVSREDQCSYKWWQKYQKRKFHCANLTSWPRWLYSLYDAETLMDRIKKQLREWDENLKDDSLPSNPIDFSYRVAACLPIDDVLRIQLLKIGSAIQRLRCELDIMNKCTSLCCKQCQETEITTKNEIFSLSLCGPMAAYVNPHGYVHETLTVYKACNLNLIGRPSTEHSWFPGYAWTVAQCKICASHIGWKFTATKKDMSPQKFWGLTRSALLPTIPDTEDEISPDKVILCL
Target sequence in this assay (Q3U1J4 whole entry partner): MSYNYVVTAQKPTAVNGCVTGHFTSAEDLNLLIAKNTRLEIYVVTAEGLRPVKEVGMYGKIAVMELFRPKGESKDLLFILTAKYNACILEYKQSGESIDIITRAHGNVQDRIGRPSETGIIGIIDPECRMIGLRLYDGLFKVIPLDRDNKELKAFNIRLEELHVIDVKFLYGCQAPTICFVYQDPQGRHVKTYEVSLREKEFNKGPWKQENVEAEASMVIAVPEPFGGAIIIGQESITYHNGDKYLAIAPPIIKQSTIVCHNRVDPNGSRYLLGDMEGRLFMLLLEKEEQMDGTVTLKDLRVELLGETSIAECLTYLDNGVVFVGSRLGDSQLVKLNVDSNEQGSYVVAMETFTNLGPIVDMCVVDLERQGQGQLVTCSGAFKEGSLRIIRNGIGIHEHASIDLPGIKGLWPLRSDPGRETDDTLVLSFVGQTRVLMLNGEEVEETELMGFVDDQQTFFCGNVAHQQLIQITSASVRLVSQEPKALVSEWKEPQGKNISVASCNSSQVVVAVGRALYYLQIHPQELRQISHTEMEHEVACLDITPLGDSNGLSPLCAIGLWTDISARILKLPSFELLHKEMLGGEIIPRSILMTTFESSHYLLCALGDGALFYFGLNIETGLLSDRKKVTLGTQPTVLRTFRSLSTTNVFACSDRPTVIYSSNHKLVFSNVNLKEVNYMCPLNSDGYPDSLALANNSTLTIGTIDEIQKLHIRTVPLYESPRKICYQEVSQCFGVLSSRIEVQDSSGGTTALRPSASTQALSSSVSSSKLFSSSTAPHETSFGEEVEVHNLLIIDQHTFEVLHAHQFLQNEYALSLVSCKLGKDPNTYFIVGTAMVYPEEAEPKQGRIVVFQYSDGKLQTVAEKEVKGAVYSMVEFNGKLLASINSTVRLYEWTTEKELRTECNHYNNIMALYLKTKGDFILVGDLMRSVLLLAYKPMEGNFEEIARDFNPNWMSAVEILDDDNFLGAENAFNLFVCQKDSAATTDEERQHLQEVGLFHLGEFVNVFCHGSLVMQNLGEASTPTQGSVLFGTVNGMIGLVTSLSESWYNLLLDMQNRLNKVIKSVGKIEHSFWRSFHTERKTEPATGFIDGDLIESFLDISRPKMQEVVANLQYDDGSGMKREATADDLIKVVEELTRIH

ZFP91 [4] = molecular target: T2, ZFP91; assay: ZFP91 immunohistochemistry in wild-type mouse testis; type: in vivo; design: tissue Taconic; host or cells: wild-type mouse testis (C57Bl/6Ntac); settings: wild type mice, 1000 mg/kg
Method: as §1, §2
Target sequence in this assay (Q8C7D2 whole entry partner): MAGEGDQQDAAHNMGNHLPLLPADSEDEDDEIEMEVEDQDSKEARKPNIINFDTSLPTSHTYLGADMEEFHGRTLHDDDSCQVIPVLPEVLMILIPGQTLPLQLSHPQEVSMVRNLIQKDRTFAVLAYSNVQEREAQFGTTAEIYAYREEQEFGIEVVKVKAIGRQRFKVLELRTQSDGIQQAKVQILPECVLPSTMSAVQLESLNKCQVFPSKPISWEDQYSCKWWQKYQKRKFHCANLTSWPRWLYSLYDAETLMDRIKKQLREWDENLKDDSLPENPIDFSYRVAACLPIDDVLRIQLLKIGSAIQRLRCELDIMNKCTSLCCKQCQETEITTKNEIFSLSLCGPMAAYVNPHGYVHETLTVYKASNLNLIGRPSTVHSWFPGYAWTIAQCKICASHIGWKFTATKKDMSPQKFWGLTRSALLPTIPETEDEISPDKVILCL
Target sequence in this assay (Q3U1J4 whole entry partner): as the sequence (Q3U1J4 whole entry partner) above
Target sequence in this assay (Q62511 whole entry): as the sequence (Q62511 whole entry) above

rabbit embryos = settings: in vivo
Method: as §3
Resorption sites, embryo mortality and gross observations were recorded during embryo collection. Embryo mortality was based on the absence of a heartbeat. There were no resorption sites or embryo and placental abnormalities in the control group. […] On Day 8, all 41 implantation sites from 5 rabbits appeared normal. On Day 9, 1/5 rabbits were affected and there was 1 resorption site out of a total of 52 implantation sites. On Day 10, 1/5 rabbit was affected and there was 1 resorption site out of a total of 38 implantation sites. On Day 11, 3/5 rabbits were affected, with 2 resorptions sites (5.41%) and 2 dead embryos (5.41%) out of 37 implantation sites. On Day 12, 5/5 rabbits were affected, with 3 resorption sites (6.98%) and 11 dead embryos (25.58%) out of […] implantation sites.
as §4
More specifically, adult female New Zealand white rabbits between 5 and 8 months of age were time mated for embryo collection at Gestation Days (GD) 8, 9, 10, 11 and 12 as shown in Table 1 below.

[5] = female, New Zealand white, 8 gestation day
[6] = female, New Zealand white, 9 gestation day
[7] = female, New Zealand white, 10 gestation day
[8] = female, New Zealand white, 11 gestation day
[9] = female, New Zealand white, 12 gestation day

T1 sequence (Q8C7D2 whole entry partner): as the sequence (Q8C7D2 whole entry partner) above
T1 sequence (Q3U1J4 whole entry partner): as the sequence (Q3U1J4 whole entry partner) above
T1 sequence (Q8BX22 whole entry): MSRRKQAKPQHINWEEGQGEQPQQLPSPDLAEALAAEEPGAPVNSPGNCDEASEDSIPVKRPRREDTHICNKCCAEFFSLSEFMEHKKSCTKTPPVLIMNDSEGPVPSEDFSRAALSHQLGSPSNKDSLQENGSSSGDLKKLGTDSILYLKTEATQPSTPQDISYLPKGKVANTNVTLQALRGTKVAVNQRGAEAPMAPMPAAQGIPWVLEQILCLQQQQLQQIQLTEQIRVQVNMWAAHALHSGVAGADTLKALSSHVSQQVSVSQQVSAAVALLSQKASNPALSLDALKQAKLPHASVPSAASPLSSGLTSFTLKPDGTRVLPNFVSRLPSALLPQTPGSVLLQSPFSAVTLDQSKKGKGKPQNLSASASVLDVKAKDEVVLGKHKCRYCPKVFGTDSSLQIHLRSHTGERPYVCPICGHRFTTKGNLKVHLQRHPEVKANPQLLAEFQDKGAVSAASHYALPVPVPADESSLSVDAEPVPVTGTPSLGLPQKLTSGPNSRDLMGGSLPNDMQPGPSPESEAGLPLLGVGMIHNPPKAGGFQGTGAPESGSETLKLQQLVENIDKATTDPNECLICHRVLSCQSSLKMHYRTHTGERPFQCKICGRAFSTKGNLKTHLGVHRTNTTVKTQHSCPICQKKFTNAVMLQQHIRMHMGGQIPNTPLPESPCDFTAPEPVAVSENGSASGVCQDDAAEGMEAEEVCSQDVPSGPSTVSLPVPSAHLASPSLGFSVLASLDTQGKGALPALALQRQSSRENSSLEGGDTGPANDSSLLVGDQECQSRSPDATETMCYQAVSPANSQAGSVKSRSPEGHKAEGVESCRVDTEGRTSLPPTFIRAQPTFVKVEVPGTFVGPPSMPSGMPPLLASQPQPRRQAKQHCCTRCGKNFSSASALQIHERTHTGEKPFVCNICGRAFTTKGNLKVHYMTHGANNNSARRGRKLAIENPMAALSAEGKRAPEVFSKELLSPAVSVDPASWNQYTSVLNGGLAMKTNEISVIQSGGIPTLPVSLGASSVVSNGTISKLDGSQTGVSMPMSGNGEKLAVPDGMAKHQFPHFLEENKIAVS

SMILES: O=C1CCC(N2C(=O)c3ccccc3C2=O)C(=O)N1 (centres unmarked) [thalidomide]
- SALL4 protein levels in testis (SALL4 [1]): exhibited no depletion of SALL4 or ZFP91; also recorded: did not cause significant degradation of either ZFP91 or SALL4
- SALL4 levels in embryos (SALL4 [2]): significant decrease in SALL4 levels which was most pronounced on GD12; also recorded: downregulation of SALL4 levels in rabbit embryos
- ZFP91 protein levels in testis (ZFP91 [3]): robustly downregulated; also recorded: caused degradation of ZFP91 but not SALL4
- ZFP91 protein levels in testis (ZFP91 [4]): exhibited no depletion of SALL4 or ZFP91; also recorded: did not cause significant degradation of either ZFP91 or SALL4
- Dead (dead embryos) (rabbit embryos; female, New Zealand white): 0
- Resorbed, share of implantation sites (rabbit embryos; female, New Zealand white): 1.92%
- Average number of implantation sites (rabbit embryos; [5]): 8.2
- Resorbed (resorption sites) (rabbit embryos; [5]): 0
- Sites/Rabbit (implantation sites per individual rabbit; R = Resorbed, D = Dead) (rabbit embryos; [5]): 9, 9, 8, 7, 8
- Average number of implantation sites (rabbit embryos; [6]): 10.4
- Rabbits affected (rabbit embryos; [6]): 1/5
- Resorbed (resorption sites) (rabbit embryos; [6]): 1
- Average number of implantation sites (rabbit embryos; [7]): 8.75
- Dead (dead embryos) (rabbit embryos; [7]): 1
- Dead, share of implantation sites (rabbit embryos; [7]): 0.03%
- Rabbits affected (rabbit embryos; [7]): 1/5
- Average number of implantation sites (rabbit embryos; [8]): 7.4
- Dead (dead embryos) (rabbit embryos; [8]): 2
- Dead, share of implantation sites (rabbit embryos; [8]): 5.41%
- Rabbits affected (rabbit embryos; [8]): 3/5
- Resorbed (resorption sites) (rabbit embryos; [8]): 2
- Resorbed, share of implantation sites (rabbit embryos; [8]): 5.41%
- Average number of implantation sites (rabbit embryos; [9]): 8.8
- Dead (dead embryos) (rabbit embryos; [9]): 11
- Dead, share of implantation sites (rabbit embryos; [9]): 25.58%
- Rabbits affected (rabbit embryos; [9]): 5/5
- Resorbed (resorption sites) (rabbit embryos; [9]): 3
- Resorbed, share of implantation sites (rabbit embryos; [9]): 6.98%
- Implantation frequency vs control (rabbit embryos): no significant differences in implantation frequency
